Test results reported in patent US20260200945A1, “4-(3,8-DIAZABICYCLO[3,2,1]OCTAN-3-YL)-PYRIDO[4,3-D]PYRIMIDINE DERIVATIVES AS INHIBITORS OF THE KRAS (G12D) MUTANT ONCOPROTEIN FOR THE TREATMENT OF CANCER” (Ranok Therapeutics (Hangzhou) Co. Ltd., priority 2022, published 2026).

Key:
[1] = molecular target: T1, KRAS(G12D)/SOS1 (Homo sapiens, UniProt P01116, G12D); assay: KRAS(G12D)/SOS1 Homogeneous Time-Resolved Fluorescence (HTRF) Assay; type: binding; conditions: absence of GTP, 4° C. for 3 hr
T1 construct: purchased Cisbio 63ADK000CB17PEH
T1 sequence (P01116 1-188 isoform P01116-2 G12D): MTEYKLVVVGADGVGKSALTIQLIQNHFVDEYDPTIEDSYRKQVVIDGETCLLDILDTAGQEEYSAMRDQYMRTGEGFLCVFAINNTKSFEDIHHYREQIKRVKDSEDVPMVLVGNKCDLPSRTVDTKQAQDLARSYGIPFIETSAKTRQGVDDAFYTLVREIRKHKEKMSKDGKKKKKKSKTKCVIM
Description: Binding of test compounds to KRAS(G12D) target protein, which in turn blocks KRAS(G12D) interaction with the SOS1 protein, was measured in the absences of GTP by homogeneous time-resolved fluorescence using the KRAS-G12D/SOS1 Binding Assay Kit (Cisbio, 63ADK000CB17PEH), following the manufacturer's instructions, except as noted. 3-fold serial dilutions of each test compound were prepared ranging from 20 µM to 1.02 nM. The test compound was mixed and incubated with reaction components, incubated in a sealed plate at 4° C. for 3 hr and fluorescence was measured using a PerkinElmer Envision plate reader. The KRAS(G12D)-SOS1 IC50 values (the concentration of 50% of the maximal inhibition) were calculated using GraphPad Prism 7 software.

[2] = test system: AGS cells; assay: Cancer Cell Line Proliferation (CellTiter-Glo) AGS; type: cell-based; conditions: Homo sapiens, 72 hr, read-out: CTG(IC50) ABS-72H(nM) AGS
Description: (§1) The following cancer cell lines were employed: AGS gastric carcinoma [heterozygous […]](ATCC, CRL-1739); A-427 lung carcinoma [heterozygous G12D](ATCC, HTB-53); ASPC1 pancreatic adenocarcinoina [homozygous […]](ATCC, CRL-1682) and SW1990 pancreatic adenocarcinoma [homozygous G12D](ATCC CRL-2172). Cell lines were cultured essentially according to ATCC recommendations. AGS, SW1990, and GP2D cells were plated in 96-well tissue culture plates at 4,000 cells/well and incubated at 37° C./5% CO2 for 72 hr in 100 μl of media. 3-fold serial dilutions of each test compound were prepared ranging from 20 µM to 1.02 nM. Each cell line was then treated with test compounds at various concentrations with a final concentration of 0.5% DMSO/well, and then incubated at 37° C./5% CO2 for 72 hr. 100 μl of CellTiter-Glo® Reagent (Promega Corporation, Madison, WI) was added to each well and processed according manufacturer's protocol. Results were analyzed and IC50 values were calculated in GraphPad 7 software.

[3] = test system: GP2D cells; assay: Cancer Cell Line Proliferation (CellTiter-Glo) GP2D; type: cell-based; conditions: 72 hr, read-out: CTG(IC50) ABS-72H(nM) GP2D
Description: AGS, SW1990, and GP2D cells were plated in 96-well tissue culture plates at 4,000 cells/well and incubated at 37° C./5% CO2 for 72 hr in 100 μl of media. 3-fold serial dilutions of each test compound were prepared ranging from 20 µM to 1.02 nM. Each cell line was then treated with test compounds at various concentrations with a final concentration of 0.5% DMSO/well, and then incubated at 37° C./5% CO2 for 72 hr. 100 μl of CellTiter-Glo® Reagent (Promega Corporation, Madison, WI) was added to each well and processed according manufacturer's protocol. Results were analyzed and IC50 values were calculated in GraphPad 7 software.

[4] = test system: SW1990 cells; assay: Cancer Cell Line Proliferation (CellTiter-Glo) SW1990; type: cell-based; conditions: Homo sapiens, 72 hr, read-out: CTG(IC50) ABS-72H(nM) SW1990
Description: as §1

[5] = Oral Bioavailability in CD-1 mice; type: in vivo; conditions: mouse, blood; male CD-1 mice, single oral dose, LC-MS/MS; read-out: % F (mean oral bioavailability)
Description: CD-1 mice were randomly assigned to 6 groups with 3 male mice in each compound group. Compounds were orally administered (P0) in a single dose to each mouse in its group. Blood samples were taken within 72 hours. Bioavailability (F %) was determined and by liquid chromatography-mass spectrometry (LC-MS/MS).

| SMILES | IC50 [1] [µM] | IC50 [2] [nM] | IC50 [3] [nM] | IC50 [4] [nM] | bioavailability [5] [%] |
| --- | --- | --- | --- | --- | --- |
| C#Cc1c(F)ccc2cc(O)cc(-c3nc(OC)c4c(N5CC6CCC(C5)N6)nc(OCC(=C)CN5CC6CC6C5)nc4c3F)c12 (centres unmarked) [Example 1, 4-{2-[(2-{3-azabicyclo[3.1.0]hexan-3-ylmethyl}prop-2-en-1-yl)oxy]-4-{3,8-diazabicyclo[3.2.1]octan-3-yl}-8-fluoro-5-methoxypyrido[4,3-d]pyrimidin-7-yl}-5-ethynyl-6-fluoronaphthalen-2-ol] | < 0.1 | < 100 | < 100 | < 100 | 10.6 |
| C#Cc1c(F)ccc2cc(O)cc(-c3nc(OC)c4c(N5CC6CCC(C5)N6)nc(OCC(CN5CC6CC6C5)=C(C)C)nc4c3F)c12 (centres unmarked) [Example 2, 4-{2-[(2-{3-azabicyclo[3.1.0]hexan-3-ylmethyl}-3-methylbut-2-en-1-yl)oxy]-4-{3,8-diazabicyclo[3.2.1]octan-3-yl}-8-fluoro-5-methoxypyrido[4,3-d]pyrimidin-7-yl}-5-ethynyl-6-fluoronaphthalen-2-ol] | < 0.1 | < 100 | < 100 | < 100 | 12.1 |
| C#Cc1c(F)ccc2cc(O)cc(-c3ncc4c(N5CC6CCC(C5)N6)nc(OCC(=C)CN5CCC(F)CC5)nc4c3F)c12 [Example 3] | < 0.1 | < 100 | < 100 | < 100 |  |
| [2H]C([2H])([2H])Oc1nc(-c2cc(O)cc3ccc(F)c(C#C)c23)c(F)c2nc(OCC(=C)CN3CC4CC4C3)nc(N3CC4CCC(C3)N4)c12 (centres unmarked) [Example 4] | < 0.1 | < 100 | < 100 | < 100 | 1.7 |
| C#Cc1c(F)ccc2cc(O)cc(-c3nc(OC)c4c(N5CC6CCC(C5)N6)nc(OCC(=C)CN5CC6C(F)C6C5)nc4c3F)c12 (centres unmarked) [Example 5] | < 0.1 | < 100 | < 100 | < 100 | 7.7 |
| C#Cc1c(F)ccc2cc(O)cc(-c3nc(OC)c4c(N5CC6CCC(C5)N6)nc(OCC(CN5CC6CC6C5)=C(F)F)nc4c3F)c12 (centres unmarked) [Example 6] |  | < 100 | < 100 | < 100 |  |
| C#Cc1c(F)ccc2cc(O)cc(-c3nc(OC)c4c(N5CC6CCC(C5)N6)nc(OCC(=CCC)CN5CC6CC6C5)nc4c3F)c12 (centres unmarked) [Example 7] |  | 100 to 1000 | 100 to 1000 |  |  |
| [2H]C([2H])([2H])Oc1nc(-c2cc(O)cc3ccc(F)c(C#C)c23)c(F)c2nc(OCC(=C)CN3CC4C(F)C4C3)nc(N3CC4CCC(C3)N4C(=O)C(F)(F)F)c12 (centres unmarked) [Example 8] |  | 100 to 1000 | 100 to 1000 |  |  |
| C#Cc1c(F)ccc2cc(O)cc(-c3nc(OC)c4c(N5CC6CCC(C5)N6)nc(OC/C(=C\C)CN5CC6CC6C5)nc4c3F)c12 (centres unmarked) [Example 9] |  | < 100 | < 100 |  |  |
| C#Cc1c(F)ccc2cc(N)cc(-c3nc(OC)c4c(N5CC6CCC(C5)N6)nc(OCC(=C)CN5CC6CC6C5)nc4c3F)c12 (centres unmarked) [Example 10] |  | 100 to 1000 | < 100 |  |  |
| C#Cc1c(F)ccc2cc(O)cc(-c3nc(OC)c4c(N5CC6CCC(C5)N6)nc(OC/C(=C/CC)CN5CC6CC6C5)nc4c3F)c12 (centres unmarked) [Example 11] |  | < 100 | < 100 |  |  |
| C#Cc1c(F)ccc2cc(O)cc(-c3nc(OC)c4c(N5CC6CCC(C5)N6)nc(OC/C(=C\CC)CN5CC6CC6C5)nc4c3F)c12 (centres unmarked) [Example 12] |  | 100 to 1000 | < 100 |  |  |
| C#Cc1c(F)ccc2cc(O)cc(-c3nc(OC)c4c(N5CC6CCC(C5)N6)nc(OC/C(=C\C(F)(F)F)CN5CC6CC6C5)nc4c3F)c12 (centres unmarked) [Example 13] |  | 100 to 1000 | 100 to 1000 |  |  |
| C#Cc1c(F)ccc2cc(O)cc(-c3nc(OC)c4c(N5CC6CCC(C5)N6CC#N)nc(OCC(CN5CC6CC6C5)=C(C)C)nc4c3F)c12 (centres unmarked) [Example 14] |  | < 100 | < 100 |  |  |
| C#Cc1c(F)ccc2cc(O)cc(-c3nc(OC)c4c(N5CC6CCC(C5)N6)nc(OC/C(CN5CC6CC6C5)=N/OC)nc4c3F)c12 (centres unmarked) [Example 15] |  | < 100 | < 100 |  |  |
| C#Cc1c(F)ccc2cc(O)cc(-c3nc(OC)c4c(N5CC6CCC(C5)N6)nc(OC/C(CN5CC6CC6C5)=N\OC)nc4c3F)c12 (centres unmarked) [Example 16] |  | < 100 | < 100 |  |  |
| C#Cc1c(F)ccc2cc(O)cc(-c3nc(OC)c4c(N5CC6CCC(C5)N6)nc(OC/C(=C\C#N)CN5CC6CC6C5)nc4c3F)c12 (centres unmarked) [Example 18] |  | 100 to 1000 |  |  |  |
| C#Cc1c(F)ccc2c(F)c(O)cc(-c3nc(OC)c4c(N5CC6CCC(C5)N6)nc(OCC(CN5CC6CC6C5)=C(C)C)nc4c3F)c12 (centres unmarked) [Example 19] |  | 100 to 1000 | < 100 |  |  |
